According to patent US20100099762A1, “COMBINATION THERAPY” (THE MENTAL HEALTH RESEARCH INSTITUTE OF VICTORIA, priority 2006, published 2010):

System: bipolar disorder
Assay: Double blind randomised placebo controlled trial of NAC in addition to treatment as usual in bipolar disorder
Format: in vivo, human
Source text: Consented individuals were assigned using simple randomization (Beller et al., 2002) to treatment with NAC or placebo in addition to treatment as usual, in a double-blind fashion. The nature and dose of the primary therapy was monitored. The person generating the randomisation schedule was not involved in any aspect of participant interview. The investigators, clinicians and statisticians were blind to treatment allocation until the data analysis was completed. The study was registered with the Australian Clinical Trials Registry (Protocol #12605000362695). Participants were recruited through advertisements, their private psychiatrists and database screening. All participants provided written informed consent. The trial setting was in the public and private outpatient psychiatry clinics of the participating centers. The trial was approved by each participating research and ethics committee (Barwon Health, Southwest Area Mental Health Service, Bendigo Health, all in Victoria, Australia), and was conducted according to Good Clinical Practice guidelines.
All randomized participants received two NAC (500 mg) capsules twice daily (2 g daily), or matching placebo. We selected a daily dose that was at the upper dosing range for published clinical trials of oral NAC of 12 weeks to 12 months duration, and that reported evidence of tolerability and some efficacy (Adair et al., 2001; Van Schooten et al., 2002; Behr et al., 2002; Demedts et al., 2005).
Individuals needed to meet DSM-IV criteria for bipolar disorder (I or II) with at least 1 documented episode of illness (depressive, manic or mixed) in the previous 6 months, and had to have been on stable therapy for at least 1 month prior to randomisation. Participants were required to have the capacity to consent to the study and comply with study procedures, and utilise effective contraception where indicated.
Exclusion criteria included individuals with a known or suspected clinically relevant systemic medical disorder, including asthma, bronchospasm, or respiratory insufficiency, recent gastrointestinal ulcers, and individuals who were pregnant or lactating. Individuals taking greater than 500 mg of NAC/day, 200 μg of selenium/day or 500 IU of Vitamin E/day were excluded, as were those with a history of anaphylaxis with NAC or any component of the preparation. Inability to comply with either the requirements of informed consent or the treatment protocol was also an exclusion criterion.
Withdrawal from the study occurred if participants ceased taking their trial medication for 7 consecutive days, stopped effective contraception or became pregnant. Dose changes to existing medications, or the addition or removal of an agent were accepted, and participants were allowed to continue with the study. Participants were withdrawn from the study if they revoked their consent or developed serious adverse events associated with the study drug, which could occur either at the request of the patient or the discretion of the investigator.
Participants were assessed at baseline using a structured clinical interview (MINI-plus) and underwent a physical examination. Clinical status was assessed using the MADRS, BDRS, YMRS, CGI-Improvement and Severity scales for bipolar disorder (CGI-I-BP, CGI-S-BP), GAF, SOFAS, SLICE/LIFE, LIFE RIFT, and Q-LES-Q.
These scales were repeated 2 weekly for the first 4 weeks and 4-weekly thereafter for a total of 24 weeks, or on the day of study termination if the patient withdrew prior to the final scheduled visit. A follow-up visit was conducted 4 weeks (±2 weeks) after the trial completion, either at trial endpoint (week 24), or premature discontinuation, to determine any change in clinical status on treatment discontinuation.
Time to any intervention for mood symptoms was a further outcome measure. […]

[1] = NAC 2 g daily plus treatment as usual, week 24
[2] = post-treatment discontinuation (washout, week 28)
[3] = week 24, MMRM, between treatment group LS mean difference

CC(=O)N[C@@H](CS)C(=O)O [NAC, N-acetyl cysteine]
BDRS: End point to Week 24 (Mean ± SD), NAC [1]: 6.7 (6.4) | CGI-I-BP: End point to Week 24 (Mean ± SD), NAC [1]: 3.1 (1.6) | CGI-I-D: End point to Week 24 (Mean ± SD), NAC [1]: 3.2 (1.6) | CGI-I-M: End point to Week 24 (Mean ± SD), NAC [1]: 3.7 (1.1) | CGI-S-BP: End point to Week 24 (Mean ± SD), NAC [1]: 2.5 (1.2) | CGI-S-D: End point to Week 24 (Mean ± SD), NAC [1]: 2.3 (1.1) | CGI-S-M: End point to Week 24 (Mean ± SD), NAC [1]: 1.9 (1.2) | GAF: End point to Week 24 (Mean ± SD), NAC [1]: 71.3 (13.9) | LIFE-RIFE: End point to Week 24 (Mean ± SD), NAC [1]: 8.9 (3.3) | MADRS: End point to Week 24 (Mean ± SD), NAC [1]: 6.6 (7.4) | Q-LES-Q: End point to Week 24 (Mean ± SD), NAC [1]: 59.2 (12.7) | SLICE-LIFE: End point to Week 24 (Mean ± SD), NAC [1]: 14.9 (5.2) | SOFAS: End point to Week 24 (Mean ± SD), NAC [1]: 73.7 (13.4) | YMRS: End point to Week 24 (Mean ± SD), NAC [1]: 2.1 (3.3) | Adverse event: headaches (NAC group, placebo 8%): 18% | Adverse event: heartburn (NAC group, placebo 8%): 16% | Adverse event: increased pain in joints (NAC group, placebo 8%): 16% | Adverse event: changed energy (NAC group, placebo 27%): 21% | Time to a mood episode (Kaplan Meier) (NAC versus placebo, log-rank test): did not reveal any significant differences | Effect sizes (Cohen's d) on all rating scales (after 24 weeks of NAC treatment): moderate to large effects | Treatment benefit at the post discontinuation visit (any of the scales, week 28): not evident | Adverse events, NAC group compared to placebo group (checklist of 44 somatic items): No reported event was significantly more common | Serious adverse events (SAE) in the group (of the 7 reported, 4 in placebo group): 3 | BDRS: Post-treatment to Week 28 (Mean ± SD), NAC [2]: 12.1 (10.8) | CGI-I-BP: Post-treatment to Week 28 (Mean ± SD), NAC [2]: 3.5 (1.5) | CGI-I-D: Post-treatment to Week 28 (Mean ± SD), NAC [2]: 3.7 (1.7) | CGI-I-M: Post-treatment to Week 28 (Mean ± SD), NAC [2]: 3.7 (1.0) | CGI-S-BP: Post-treatment to Week 28 (Mean ± SD), NAC [2]: 3.1 (1.5) | CGI-S-D: Post-treatment to Week 28 (Mean ± SD), NAC [2]: 3.1 (1.7) | CGI-S-M: Post-treatment to Week 28 (Mean ± SD), NAC [2]: 1.9 (0.9) | GAF: Post-treatment to Week 28 (Mean ± SD), NAC [2]: 66.6 (14.7) | LIFE-RIFE: Post-treatment to Week 28 (Mean ± SD), NAC [2]: 10.8 (4.2) | MADRS: Post-treatment to Week 28 (Mean ± SD), NAC [2]: 12.2 (11.6) | Q-LES-Q: Post-treatment to Week 28 (Mean ± SD), NAC [2]: 52.8 (11.4) | SLICE-LIFE: Post-treatment to Week 28 (Mean ± SD), NAC [2]: 17.2 (6.0) | SOFAS: Post-treatment to Week 28 (Mean ± SD), NAC [2]: 66.9 (16.2) | YMRS: Post-treatment to Week 28 (Mean ± SD), NAC [2]: 2.8 (3.4) | Response, defined as a 50% reduction in total MADRS score, participants (week 20 compared to baseline, placebo 21): 46% | CGI-I-BP: NAC-Placebo at Endpoint LS Mean [3]: −0.67 | CGI-I-D: NAC-Placebo at Endpoint LS Mean [3]: −0.62 | CGI-I-M: NAC-Placebo at Endpoint LS Mean [3]: −0.05 | CGI-S-D: NAC-Placebo at Endpoint LS Mean [3]: −0.67 | CGI-S-M: NAC-Placebo at Endpoint LS Mean [3]: −0.03 | Response, defined as a 50% reduction in total MADRS score, participants (week 24 compared to baseline, placebo 18): 51%
